Measured values as given in ChEMBL document CHEMBL1123448, “Studies in antifertility agents. 50. Stereoselective binding of d- and l-centchromans to estrogen receptors and their antifertility activity” (1986).

Tests used:
[1] = target: T1, Estrogen receptor (Rattus norvegicus) (UniProt P06211+Q62986); test: Estrogenic activity as percent of control at 5 ug subcutaneous dose; assay type: functional
[2] = target: T1, Estrogen receptor (Rattus norvegicus); test: Estrogenic activity as percent of control at 50 ug subcutaneous dose; assay type: functional
[3] = target: T1, Estrogen receptor (Rattus norvegicus); test: Estrogenic activity as percent of control at 100 ug subcutaneous dose; assay type: functional
[4] = target: T1, Estrogen receptor (Rattus norvegicus); test: Anti-uterotrophic activity in immature rats at 100 ug; assay type: functional
[5] = target: T1, Estrogen receptor (Rattus norvegicus); test: Anti-uterotrophic activity in immature rats at 50 ug; assay type: functional
[6] = target: T1, Estrogen receptor (Rattus norvegicus); test: Anti-uterotrophic activity in immature rats at 5 ug; assay type: functional
[7] = target: T1, Estrogen receptor (Rattus norvegicus); test: Estrogenic activity in immature rats and assayed as uterine weight gain at 0.05 ug subcutaneous dose; assay type: functional
[8] = target: T1, Estrogen receptor (Rattus norvegicus); test: Estrogenic activity in immature rats and assayed as uterine weight gain at 100 ug subcutaneous dose; assay type: functional
[9] = target: T1, Estrogen receptor (Rattus norvegicus); test: Estrogenic activity in immature rats and assayed as uterine weight gain at 5 ug subcutaneous dose; assay type: functional
[10] = target: T1, Estrogen receptor (Rattus norvegicus); test: Estrogenic activity in immature rats and assayed as uterine weight gain at 50 ug subcutaneous dose; assay type: functional
[11] = target: T1, Estrogen receptor (Rattus norvegicus); test: Antiuterotrophic activity in immature rats at 100 ug; assay type: functional
[12] = target: T1, Estrogen receptor (Rattus norvegicus); test: Antiuterotrophic activity in immature rats at 50 ug; assay type: functional
[13] = target: T1, Estrogen receptor (Rattus norvegicus); test: Antiuterotrophic activity in immature rats at 5 ug; assay type: functional
[14] = target: T1, Estrogen receptor (Rattus norvegicus)
Rattus norvegicus = species: Rattus norvegicus; test: Antiimplantation activity in sperm-positive female albino rats mated to coeval males of proven fertility; assay type: functional
[15] = target: T1, Estrogen receptor (Rattus norvegicus); test: Estrogenic activity as percent of control at 500 ug subcutaneous dose; assay type: functional
[16] = target: T1, Estrogen receptor (Rattus norvegicus); test: Estrogenic activity in immature rats and assayed as uterine weight gain at 500 ug subcutaneous dose; assay type: functional

COc1ccc2c(c1)OC(C)(C)C(c1ccccc1)C2c1ccc(OCCN2CCCC2)cc1 (racemic)
Control [1]: 174%
Control [2]: 281%
Control [3]: 288%
Uterine wet weight [4]: 56
inhibition [4]: 16.7%
Uterine wet weight [5]: 60.3
inhibition [5]: 8.1%
Uterine wet weight [6]: 52.5
inhibition [6]: 23.8%
Uterine wet weight [7]: 16.6
Uterine wet weight [8]: 49
Uterine wet weight [9]: 29.5
Uterine wet weight [10]: 47.7
Stimulation [11]: 87%
Stimulation [12]: 94%
Stimulation [13]: 82%
Uterine wet weight [14]: 16.3

COc1ccc2c(c1)OC(C)(C)C(c1ccccc1)C2c1ccc(OCCN2CCCC2)cc1 (racemic) [ORMELOXIFENE]
MED (Rattus norvegicus): 0.25 mg/kg

COc1ccc2c(c1)OC(C)(C)C(c1ccccc1)C2c1ccc(OCCN2CCCC2)cc1 (stereo in doubt; form 1)
Control [1]: 187%
Control [2]: 238%
Control [15]: 267%
Control [3]: 238%
Uterine wet weight [4]: 42.3
inhibition [4]: 28.4%
Uterine wet weight [5]: 55.7
Uterine wet weight [6]: 52.3
inhibition [6]: 1.9%
Uterine wet weight [7]: 16.2
Uterine wet weight [8]: 40.4
Uterine wet weight [9]: 31.8
Uterine wet weight [10]: 40.5
Uterine wet weight [16]: 45.4
Stimulation [11]: 80%
Stimulation [12]: 105%
Stimulation [13]: 99%
Uterine wet weight [14]: 16.8

COc1ccc2c(c1)OC(C)(C)C(c1ccccc1)C2c1ccc(OCCN2CCCC2)cc1 (stereo in doubt; form 1) [ORMELOXIFENE]
MED (Rattus norvegicus): 5 mg/kg

COc1ccc2c(c1)OC(C)(C)C(c1ccccc1)C2c1ccc(OCCN2CCCC2)cc1 (stereo in doubt; form 2)
Control [1]: 222%
Control [2]: 286%
Control [3]: 303%
Uterine wet weight [4]: 46.4
inhibition [4]: 40.3%
Uterine wet weight [5]: 52.6
inhibition [5]: 28.7%
Uterine wet weight [6]: 52.7
inhibition [6]: 28.7%
Uterine wet weight [7]: 15.8
Uterine wet weight [8]: 51.4
Uterine wet weight [9]: 37.8
Uterine wet weight [10]: 48.6
Stimulation [11]: 68%
Stimulation [12]: 77%
Stimulation [13]: 77%
Uterine wet weight [14]: 25.8

COc1ccc2c(c1)OC(C)(C)C(c1ccccc1)C2c1ccc(OCCN2CCCC2)cc1 (stereo in doubt; form 2) [ORMELOXIFENE]
MED (Rattus norvegicus): 0.15 mg/kg

COc1ccc2c(c1)CCC(c1ccccc1)=C2c1ccc(OCCN2CCCC2)cc1 [NAFOXIDINE]
minimal effective dose (Rattus norvegicus; Rattus norvegicus, read-out: MED): 0.1 mg/kg
